Values quoted from earlier work in patent publication US20200316072A1, “COMPOUNDS FOR USE IN REGULATING FOLLICLE MATURATION” (AARHUS UNIVERSITET, priority 2017, published 2020).

Tested on: IGF/Akt/mTOR signaling pathway
Conditions: stated as prior knowledge on the DPP4 inhibitor; test system not given

Question: With `CC#CCn1c(N2CCC[C@@H](N)C2)nc2c1c(=O)n(Cc1nc(C)c3ccccc3n1)c(=O)n2C` [Linagliptin, 8-[(3R)-3-aminopiperidin-1-yl]-7-but-2-ynyl-3-methyl-1-[(4-methylquinazolin-2-yl)methyl]purine-2,6-dione] as the compound, how does the “phosphorylated protein expression of IGF/Akt/mTOR signaling pathway” value read?
Answer: The value was “alleviated”.
